Key:
[1] = target: T1, Bsu Smc (Smc dimer without ScpAB) (Bacillus subtilis, UniProt P51834); assay: coupled ATPase assay, ATP titration; assay type: biochemical; conditions: wild-type Smc, no DNA, pH 7.5, 2 mM MgCl2, 25 °C
T1 construct: full-length native (untagged) Smc, expressed in E. coli BL21-Gold (DE3) from pET-22/pET-28; homodimer
T1 sequence (P51834 1-1186): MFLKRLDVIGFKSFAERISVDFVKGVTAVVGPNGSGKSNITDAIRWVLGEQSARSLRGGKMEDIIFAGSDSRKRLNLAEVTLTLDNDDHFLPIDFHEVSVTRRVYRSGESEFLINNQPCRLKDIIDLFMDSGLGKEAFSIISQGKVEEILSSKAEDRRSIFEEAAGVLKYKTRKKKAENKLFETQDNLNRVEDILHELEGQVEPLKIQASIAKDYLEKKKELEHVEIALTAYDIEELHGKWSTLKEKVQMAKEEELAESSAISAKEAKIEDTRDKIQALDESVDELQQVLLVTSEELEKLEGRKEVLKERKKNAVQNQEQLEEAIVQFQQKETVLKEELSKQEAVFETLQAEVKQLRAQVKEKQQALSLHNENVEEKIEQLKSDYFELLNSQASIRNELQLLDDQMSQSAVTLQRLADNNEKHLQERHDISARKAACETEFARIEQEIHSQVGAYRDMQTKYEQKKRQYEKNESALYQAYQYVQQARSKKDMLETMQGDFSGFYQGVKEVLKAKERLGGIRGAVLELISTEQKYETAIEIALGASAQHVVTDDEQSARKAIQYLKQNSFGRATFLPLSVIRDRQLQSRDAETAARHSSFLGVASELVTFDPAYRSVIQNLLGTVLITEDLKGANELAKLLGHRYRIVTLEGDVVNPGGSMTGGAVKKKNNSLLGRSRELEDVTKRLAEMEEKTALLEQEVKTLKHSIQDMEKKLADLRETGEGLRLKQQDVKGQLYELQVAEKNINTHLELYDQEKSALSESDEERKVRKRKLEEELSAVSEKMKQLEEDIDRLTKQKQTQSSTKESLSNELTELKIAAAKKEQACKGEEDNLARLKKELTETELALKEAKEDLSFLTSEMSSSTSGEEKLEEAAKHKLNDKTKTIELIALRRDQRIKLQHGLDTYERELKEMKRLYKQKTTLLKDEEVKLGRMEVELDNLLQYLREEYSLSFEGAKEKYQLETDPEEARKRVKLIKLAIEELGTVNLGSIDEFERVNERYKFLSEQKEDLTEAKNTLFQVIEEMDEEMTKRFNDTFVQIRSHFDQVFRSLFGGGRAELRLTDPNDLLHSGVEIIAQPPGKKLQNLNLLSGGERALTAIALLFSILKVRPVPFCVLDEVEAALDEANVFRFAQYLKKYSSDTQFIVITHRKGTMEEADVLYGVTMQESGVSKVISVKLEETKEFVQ

Smc-ScpAB holo-complex = target: T2, Smc-ScpAB holo-complex (Bacillus subtilis, UniProt P51834); assay: coupled ATPase assay, ATP titration; assay type: biochemical; conditions: wild-type Smc with ScpAB, pH 7.5, 2 mM MgCl2, 25 °C
T2 construct: full-length native (untagged) Smc, ScpA and ScpB purified separately from E. coli and mixed stoichiometrically; with Segregation and condensation protein A; Segregation and condensation protein B
T2 sequence (P51834 1-1186): T1 sequence (P51834 1-1186)
T2 sequence (P35154 1-251 partner): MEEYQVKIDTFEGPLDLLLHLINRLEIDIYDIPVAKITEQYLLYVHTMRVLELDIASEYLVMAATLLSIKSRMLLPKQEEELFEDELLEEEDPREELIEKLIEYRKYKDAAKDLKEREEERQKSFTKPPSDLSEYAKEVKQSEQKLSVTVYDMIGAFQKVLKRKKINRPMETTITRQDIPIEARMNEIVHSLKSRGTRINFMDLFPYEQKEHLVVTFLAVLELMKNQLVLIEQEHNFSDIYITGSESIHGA
T2 sequence (P35155 1-197 partner): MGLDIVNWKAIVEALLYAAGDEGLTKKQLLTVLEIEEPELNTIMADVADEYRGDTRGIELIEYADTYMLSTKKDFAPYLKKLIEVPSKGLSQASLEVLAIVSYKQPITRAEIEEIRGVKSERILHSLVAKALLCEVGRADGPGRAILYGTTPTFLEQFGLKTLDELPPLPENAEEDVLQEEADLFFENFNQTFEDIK

Structure (SMILES): Nc1ncnc2c1ncn2[C@@H]1O[C@H](COP(=O)(O)OP(=O)(O)OP(=O)(O)O)[C@@H](O)[C@H]1O [ATP]
- coupled ATPase assay, ATP titration [1]: Measurement of ATP hydrolysis rates for Smc protein (wt), Smc(G302W) and Smc(G302E)
- coupled ATPase assay, ATP titration (Smc-ScpAB holo-complex): increasing concentrations of ATP and in the absence or presence of dsDNA40 and ScpAB

— doi:10.1101/2021.01.21.427566v1, “Gradual opening of Smc arms in prokaryotic condensin” (biorxiv, 2021)
